According to patent US20220289794A1, “SYNTHETIC ANTIMICROBIAL PEPTIDES” (priority 2019, published 2022):
≈ marks a conversion by molar mass, not a printed value. Where two headings read alike, the source gives them in different places. Non-standard residues stand in square brackets, D forms with d. Residues, ends and D or L forms follow the SMILES beside them. Dip = N[C@H](C(=O)O)C(c1ccccc1)c1ccccc1

Assays:
[1] = system: Enterococcus faecalis ATCC 29212; settings: E. faecalis ATCC 29212
[2] = system: Escherichia coli (ATCC 25922)
[3] = system: Streptococcus pneumoniae ATCC 51938; settings: S. pneumoniae ATCC 51938
[4] = system: Pseudomonas aeruginosa (ATCC 27883)
E. coli (ATCC BAA-2452) = assay: Broad-spectrum activity against Gram-Negative bacteria (MIC); type: cell-based; settings: Table 16, Gram-negative panel
[5] = system: A. baumannii (ATCC BAA-1605); assay: as above; type: cell-based; settings: Table 16, Gram-negative panel
[6] = system: P. aeruginosa (ATCC BAA-1744); assay: as above; type: cell-based; settings: Table 16, Gram-negative panel
B. subtilis (ATCC-6633) = assay: Broad-spectrum activity against Gram-Positive bacteria (MIC); type: cell-based; parameters: unit not given here
[7] = system: Klebsiella pneumoniae ATCC 13883; settings: Table 16, Gram-negative panel
[8] = system: P. aeruginosa (ATCC 10145); assay: Broad-spectrum activity against Gram-Negative bacteria (MIC); type: cell-based; settings: Table 16, Gram-negative panel
[9] = system: Enterococcus faecalis ATCC 51575; settings: E. faecalis ATCC 51575
[10] = system: Enterococcus faecium ATCC 27270; settings: E. faecium ATCC 27270
[11] = system: Enterococcus faecium ATCC 700221; settings: E. faecium ATCC 700221
[12] = system: Methicillin-resistant Staphylococcus aureus MRSA (ATCC BAA-1556)
human red blood cells = system: human red blood cells; parameters: unit not given beside the values
B. cereus (ATCC-13061) = assay: Broad-spectrum activity against Gram-Positive bacteria (MIC); type: cell-based; parameters: unit not given here
[13] = system: Klebsiella pneumoniae (ATCC BAA-1705); settings: Table 16, Gram-negative panel
[14] = system: Streptococcus pneumoniae ATCC 49619; settings: S. pneumoniae ATCC 49619

Molecule	Broad-spectrum activity E. faecalis (ATCC 29212) [1]	Broad-spectrum activity S. pneumoniae (ATCC 51938) [3]	MIC E. coli (ATCC BAA-2452) (E. coli (ATCC BAA-2452))	MIC A. baumannii (ATCC BAA-1605) [5]	MIC P. aeruginosa (ATCC BAA-1744) [6]	Broad-spectrum activity B. subtilis (ATCC-6633) (B. subtilis (ATCC-6633))	MIC K. pneumonia (ATCC 13883) [7]	MIC P. aeruginosa (ATCC 10145) [8]	Broad-spectrum activity E. faecalis (ATCC 51575) [9]	Broad-spectrum activity E. faecium (ATCC 27270) [10]	Broad-spectrum activity E. faecium (ATCC 700221) [11]	HC50 (human red blood cells)	Broad-spectrum activity B. cereus (ATCC-13061) (B. cereus (ATCC-13061))	MIC K. pneumonia (ATCC BAA-1705) [13]	Broad-spectrum activity S. pneumoniae (ATCC 49619) [14]	MIC E. coli ATCC 25922 ([2]; E. coli ATCC 25922)	MIC P. aeruginosa ATCC 27883 ([4]; P. aeruginosa ATCC 27883)	MIC MRSA ATCC BAA-1556 ([12]; MRSA ATCC BAA-1556)	MIC S. aureus ATCC 29213 (S. aureus ATCC 29213; S. aureus ATCC 29213)	also measured
N=C(N)NCCC[C@@H]1NC(=O)[C@H](CCCNC(=N)N)NC(=O)[C@H](C(c2ccccc2)c2ccccc2)NC(=O)[C@H](C(c2ccccc2)c2ccccc2)NC(=O)[C@H](C(c2ccccc2)c2ccccc2)NC(=O)[C@H](CCCNC(=N)N)NC1=O [IFX-002, c[Arg-Arg-Arg-Dip-Dip-Dip]] (cyclo([Dip][Dip][Dip]RRR))	12.5	25	25 µg/mL (≈ 22 µM)	25 µg/mL (≈ 22 µM)	25 µg/mL (≈ 22 µM)	6.2	50 µg/mL (≈ 43.9 µM)	50 µg/mL (≈ 43.9 µM)	12.5	6.2	6.2	205	12.5	12.5 µg/mL (≈ 11 µM)	50	–	–	–	–	MIC E. coli ATCC 25922 ([2]; ATCC 25922): 12.5 µg/mL (≈ 11 µM); MIC P. aeruginosa ATCC 27883 ([4]; ATCC 27883): 12.5 µg/mL (≈ 11 µM); MIC MRSA ATCC BAA-1556 ([12]; ATCC BAA-1556): 3.1 µg/mL (≈ 2.72 µM); MIC S. aureus ATCC 29213 (S. aureus ATCC 29213; ATCC 29213): 3.1 µg/mL (≈ 2.72 µM)
N=C(N)NCCC[C@@H]1NC(=O)[C@H](CCCNC(=N)N)NC(=O)[C@H](CCCNC(=N)N)NC(=O)[C@H](C(c2ccccc2)c2ccccc2)NC(=O)[C@H](C(c2ccccc2)c2ccccc2)NC(=O)[C@H](Cc2c[nH]c3ccccc23)NC1=O [IFX-020, c[Arg-Arg-Arg-Trp-Dip-Dip]] (cyclo([Dip][Dip]RRRW))	6.2	12.5	6.2 µg/mL (≈ 5.63 µM)	25 µg/mL (≈ 22.7 µM)	12.5 µg/mL (≈ 11.3 µM)	1.5	50 µg/mL (≈ 45.4 µM)	25 µg/mL (≈ 22.7 µM)	12.5	3.1	1.5	180	3.1	12.5 µg/mL (≈ 11.3 µM)	25	–	–	–	–	–
N=C(N)NCCC[C@@H]1NC(=O)[C@H](CCCNC(=N)N)NC(=O)[C@H](C(c2ccccc2)c2ccccc2)NC(=O)[C@H](Cc2c[nH]c3ccccc23)NC(=O)[C@H](C(c2ccccc2)c2ccccc2)NC(=O)[C@H](CCCNC(=N)N)NC1=O [IFX-021, c[Arg-Arg-Arg-Dip-Trp-Dip]] (cyclo([Dip]RRR[Dip]W))	12.5	25	12.5 µg/mL (≈ 11.3 µM)	25 µg/mL (≈ 22.7 µM)	25 µg/mL (≈ 22.7 µM)	3.1	> 50 µg/mL	50 µg/mL (≈ 45.4 µM)	12.5	6.2	3.1	260	6.2	12.5 µg/mL (≈ 11.3 µM)	50	–	–	–	–	–
c[arg-arg-arg-arg-dip-Trp-dip] [IFX-095]	6.2	12.5	25 µg/mL	12.5 µg/mL	25 µg/mL	1.5	50 µg/mL	25 µg/mL	12.5	3.1	6.2	–	3.1	12.5 µg/mL	50	12.5 µg/mL	12.5 µg/mL	3.1 µg/mL	3.1 µg/mL	–
c[arg-arg-arg-arg-dip-dip-dip] [IFX-067]	6.2	12.5	12.5 µg/mL	12.5 µg/mL	25 µg/mL	1.5	> 50 µg/mL	50 µg/mL	6.2	3.1	3.1	–	3.1	25 µg/mL	25	6.2 µg/mL	12.5 µg/mL	1.5 µg/mL	3.1 µg/mL	–
c[arg-arg-arg-arg-dip-trp-dip] [IFX-101]	12.5	12.5	25 µg/mL	12.5 µg/mL	25 µg/mL	1.5	> 50 µg/mL	50 µg/mL	12.5	3.1	12.5	–	6.2	25 µg/mL	50	12.5 µg/mL	25 µg/mL	3.1 µg/mL	3.1 µg/mL	–
